Source: ChEMBL document CHEMBL1201862, “PubChem BioAssay data set” (2004)
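The compound was tested at five concentrations on cells cultured in 96-well plates, with a 48-hour exposure period. Here, GI50 denotes the concentration required for 50% inhibition of growth.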 Active and inactive are the calls of the source. Cut-off read from the data, not from the text of the source: active = GI50 up to about 1.1 µM and inactive = higher.

Columns and labels:
Assay in all cases: NCI-60 cell line screen, 48 h
SNB-19 = tested on: SNB-19
HL-60 = tested on: HL-60
Malme-3M = tested on: Malme-3M
NCI-H460 = tested on: NCI-H460
IGROV-1 = tested on: IGROV-1
BT-549 = tested on: BT-549
SF-295 = tested on: SF-295
T47D = tested on: T47D
HT-29 = tested on: HT-29
UACC-257 = tested on: UACC-257
EKVX = tested on: EKVX
SF-539 = tested on: SF-539
Hs-578T = tested on: Hs-578T
NCI-H23 = tested on: NCI-H23
SW-620 = tested on: SW-620
KM12 = tested on: KM12
OVCAR-8 = tested on: OVCAR-8
DU-145 = tested on: DU-145
OVCAR-4 = tested on: OVCAR-4
NCI-H226 = tested on: NCI-H226
NCI/ADR-RES = tested on: NCI/ADR-RES
UO-31 = tested on: UO-31
K562 = tested on: K562
OVCAR-3 = tested on: OVCAR-3
CCRF-CEM = tested on: CCRF-CEM
MOLT-4 = tested on: MOLT-4
OVCAR-5 = tested on: OVCAR-5
SK-MEL-28 = tested on: SK-MEL-28
UACC-62 = tested on: UACC-62
LOX IMVI = tested on: LOX IMVI
SK-OV-3 = tested on: SK-OV-3
MCF7 = tested on: MCF7
HOP-62 = tested on: HOP-62
ACHN = tested on: ACHN
HCT-15 = tested on: HCT-15
HOP-92 = tested on: HOP-92
M14 = tested on: M14
U-251 = tested on: U-251
SK-MEL-2 = tested on: SK-MEL-2
RXF 393 = tested on: RXF 393
A549 = tested on: A549
MDA-MB-435 = tested on: MDA-MB-435
SR = tested on: SR
HCT-116 = tested on: HCT-116
RPMI-8226 = tested on: RPMI-8226
TK-10 = tested on: TK-10
A498 = tested on: A498
SF-268 = tested on: SF-268
HCC 2998 = tested on: HCC 2998
MDA-MB-231 = tested on: MDA-MB-231
SNB-75 = tested on: SNB-75
CAKI-1 = tested on: CAKI-1
786-0 = tested on: 786-0
COLO 205 = tested on: COLO 205
SK-MEL-5 = tested on: SK-MEL-5
PC-3 = tested on: PC-3
NCI-H522 = tested on: NCI-H522
SN12C = tested on: SN12C

Cn1c(-c2cccc(N)c2)[n+](C)c2ccccc21
GI50 (SNB-19): 60.3 µM (inactive)
GI50 (HL-60): 36.1 µM (inactive)
GI50 (Malme-3M): > 100 µM (inactive)
GI50 (NCI-H460): > 100 µM (inactive)
GI50 (IGROV-1): > 100 µM (inactive)
GI50 (BT-549): > 100 µM (inactive)
GI50 (SF-295): > 100 µM (inactive)
GI50 (T47D): > 100 µM (inactive)
GI50 (HT-29): > 100 µM (inactive)
GI50 (UACC-257): > 100 µM (inactive)
GI50 (EKVX): > 100 µM (inactive)
GI50 (SF-539): > 100 µM (inactive)
GI50 (Hs-578T): 64.6 µM (inactive)
GI50 (NCI-H23): 48.3 µM (inactive)
GI50 (SW-620): > 100 µM (inactive)
GI50 (KM12): > 100 µM (inactive)
GI50 (OVCAR-8): > 100 µM (inactive)
GI50 (DU-145): > 100 µM (inactive)
GI50 (OVCAR-4): > 100 µM (inactive)
GI50 (NCI-H226): > 100 µM (inactive)
GI50 (NCI/ADR-RES): > 100 µM (inactive)
GI50 (UO-31): > 100 µM (inactive)
GI50 (K562): > 100 µM (inactive)
GI50 (OVCAR-3): > 100 µM (inactive)
GI50 (CCRF-CEM): 53.1 µM (inactive)
GI50 (MOLT-4): > 100 µM (inactive)
GI50 (OVCAR-5): > 100 µM (inactive)
GI50 (SK-MEL-28): > 100 µM (inactive)
GI50 (UACC-62): > 100 µM (inactive)
GI50 (LOX IMVI): > 100 µM (inactive)
GI50 (SK-OV-3): > 100 µM (inactive)
GI50 (MCF7): > 100 µM (inactive)
GI50 (HOP-62): > 100 µM (inactive)
GI50 (ACHN): > 100 µM (inactive)
GI50 (HCT-15): > 100 µM
GI50 (HOP-92): > 100 µM (inactive)
GI50 (M14): > 100 µM (inactive)
GI50 (U-251): > 10 µM (inactive)
GI50 (SK-MEL-2): > 100 µM (inactive)
GI50 (RXF 393): > 100 µM (inactive)
GI50 (A549): 40.9 µM (inactive)
GI50 (MDA-MB-435): > 100 µM (inactive)
GI50 (SR): > 100 µM (inactive)
GI50 (HCT-116): > 100 µM (inactive)
GI50 (RPMI-8226): > 100 µM (inactive)
GI50 (TK-10): > 100 µM (inactive)
GI50 (A498): 22.4 µM (inactive)
GI50 (SF-268): > 100 µM (inactive)
GI50 (HCC 2998): > 100 µM (inactive)
GI50 (MDA-MB-231): > 100 µM (inactive)
GI50 (SNB-75): > 100 µM (inactive)
GI50 (CAKI-1): > 100 µM (inactive)
GI50 (786-0): > 100 µM (inactive)
GI50 (COLO 205): 38.7 µM (inactive)
GI50 (SK-MEL-5): 57.3 µM (inactive)
GI50 (PC-3): > 100 µM (inactive)

COc1ccc(CC2c3cc(OC)c(OC)c(OC)c3CC[N+]2(C)C)cc1Oc1ccc(CC2c3cc4c(c(OC)c3CC[N+]2(C)C)OCO4)cc1 (centres undefined)
GI50 (SNB-19): > 100 µM (inactive)
GI50 (HL-60): > 100 µM (inactive)
GI50 (Malme-3M): > 100 µM (inactive)
GI50 (NCI-H460): > 100 µM (inactive)
GI50 (IGROV-1): > 100 µM (inactive)
GI50 (BT-549): > 100 µM (inactive)
GI50 (SF-295): > 100 µM (inactive)
GI50 (T47D): > 100 µM (inactive)
GI50 (HT-29): > 100 µM (inactive)
GI50 (UACC-257): > 100 µM (inactive)
GI50 (EKVX): > 100 µM (inactive)
GI50 (Hs-578T): 80.9 µM (inactive)
GI50 (NCI-H23): > 100 µM (inactive)
GI50 (SW-620): > 100 µM (inactive)
GI50 (KM12): > 100 µM (inactive)
GI50 (OVCAR-8): > 100 µM (inactive)
GI50 (DU-145): > 100 µM (inactive)
GI50 (OVCAR-4): > 100 µM (inactive)
GI50 (NCI-H226): > 100 µM (inactive)
GI50 (NCI/ADR-RES): > 100 µM (inactive)
GI50 (UO-31): > 100 µM (inactive)
GI50 (K562): > 100 µM (inactive)
GI50 (CCRF-CEM): > 100 µM (inactive)
GI50 (MOLT-4): > 100 µM (inactive)
GI50 (OVCAR-5): > 100 µM (inactive)
GI50 (SK-MEL-28): > 100 µM (inactive)
GI50 (UACC-62): > 100 µM (inactive)
GI50 (LOX IMVI): > 100 µM (inactive)
GI50 (SK-OV-3): > 100 µM (inactive)
GI50 (MCF7): 96.2 µM (inactive)
GI50 (ACHN): > 100 µM (inactive)
GI50 (HCT-15): > 100 µM
GI50 (HOP-92): > 100 µM (inactive)
GI50 (M14): > 100 µM (inactive)
GI50 (NCI-H522): > 100 µM (inactive)
GI50 (U-251): > 100 µM (inactive)
GI50 (SK-MEL-2): > 100 µM (inactive)
GI50 (A549): 34.4 µM (inactive)
GI50 (MDA-MB-435): > 100 µM (inactive)
GI50 (SR): > 100 µM (inactive)
GI50 (HCT-116): > 100 µM (inactive)
GI50 (TK-10): > 100 µM (inactive)
GI50 (A498): > 100 µM (inactive)
GI50 (SF-268): > 100 µM (inactive)
GI50 (HCC 2998): > 100 µM (inactive)
GI50 (MDA-MB-231): > 100 µM (inactive)
GI50 (SNB-75): 91.6 µM (inactive)
GI50 (CAKI-1): > 100 µM (inactive)
GI50 (786-0): > 100 µM (inactive)
GI50 (COLO 205): > 100 µM (inactive)
GI50 (SN12C): > 100 µM (inactive)
GI50 (SK-MEL-5): > 100 µM (inactive)
GI50 (PC-3): > 100 µM (inactive)
